# Assay results: article PMC10937676, “Targeting the NTSR2/TrkB oncogenic pathway in chronic lymphocytic leukemia” (Scientific Reports, 2024)
# How the values were obtained:
# SRC = assay: Immunoblot, relative phosphorylation level of SRC in CLL-B cells; type: cell-based, human; settings: CLL-B cells from 10 patients, overnight, 10 µM
# Procedure: Figure 5 The peptide inhibits kinase phosphorylation. CLL-B cells from 10 patients were incubated overnight, with or without 10 µM of TAT-Pep. Whole cell lysates were then prepared, and 10 µg of proteins were immunoblotted to assess the following parameters. (A) Relative phosphorylation level of SRC. (B) Relative phosphorylation level of AKT. (C) Relative phosphorylation level of LYN. (D) Relative phosphorylation level of BTK. (E) Relative phosphorylation level of all tyrosine-phosphorylated proteins.
# Whole cell lysate proteins were extracted using RIPA buffer (Sigma-Aldrich) and sonication (VibraCell™). Plasma membrane proteins were recovered by using the Plasma Membrane Protein Extraction Kit (Abcam) according to the manufacturer’s instructions. A list of the antibodies used for immunoblotting is available in Supplementary Table 2. Bands were quantitatively assessed by densitometry using Fiji software. To evaluate the level of interaction of NTSR2 and TRKB we normalized the density of the TRKB bands by the density of the NTSR2 bands to obtain the relative amount of TRKB co-precipitated through NTSR2.
# BCL-XL mRNA = assay: RTqPCR, mRNA level of BCL-XL in CLL-B cells; type: cell-based, human; settings: CLL-B cells from 12 patients, overnight, 10 µM, 18S housekeeping gene
# Source text: Concerning anti-apoptotic protein expression, a decrease in anti-apoptotic proteins BCL-2; BCL-XL and MCL-1 was observed after TAT-Pep treatment of CLL-B cells, possibly as a consequence of the SRC kinase inactivation (Fig. 6A–C). To unveil whether the regulation mechanism behind the observed modifications was transcriptional or post-transcriptional, we evaluated the mRNA levels of all three anti-apoptotic proteins following peptide treatment. […] To further underline that the induction of cell death following TAT-Pep treatment involved apoptosis regulation pathways, we used B cells from six CLL patients and stained them with Annexin V in both TAT-Pep treated and untreated conditions. […]
# Figure 6 The peptide lowers anti-apoptotic proteins levels. […] CLL-B cells from 12 patients were incubated overnight, with or without 10 µM of TAT-Pep, subsequently RNA was extracted from cell lysates and mRNA levels of BCL-2 (D); BCL-XL (E) and MCL-1 (F) were evaluated using RTqPCR; 18S was used as a housekeeping gene. (G) Increased concentrations (0 to 30 µM) of TAT-Pep were incubated with 20,000 CLL-B, and the number of Annexin V-positive cells was measured using the Incucyte live-cell imaging device. Fluorescence was monitored for 48 h. […] The ‘Green Object Count/Phase Object Count’ ratio was determined using the Incucyte analysis software to obtain the percentage of apoptotic cells. […]
sequence,measurement,setting,value
GRKKRRQRRRPPQNAVSSSFRKLFLEAVSSLCGEHHPMKRLPPKPQSPTLMDTASGFGDPPETRT [TAT-Pep],amount of phosphorylated SRC (in words),SRC,significant decrease
same,mRNA level of BCL-XL (in words),BCL-XL mRNA,significantly lowered expression
